Measurements: PubChem BioAssay (NCI)
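Five compound concentrations were applied to cells in 96-well plates for 48 hours; endpoints were derived by simple linear interpolation of the resulting dose-response curve. TGI is the concentration that stops growth completely.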

Assays:
Assay in all cases: NCI tumour cell line growth inhibition, 48 h
786-0 renal = tested on: 786-0 renal
A549 NSCLC = tested on: A549 NSCLC
ACHN renal = tested on: ACHN renal
BT-549 breast = tested on: BT-549 breast
CAKI-1 renal = tested on: CAKI-1 renal
CCRF-CEM leukemia = tested on: CCRF-CEM leukemia
COLO 205 colon = tested on: COLO 205 colon
DU-145 prostate = tested on: DU-145 prostate
EKVX NSCLC = tested on: EKVX NSCLC
HCC-2998 colon = tested on: HCC-2998 colon
HCT-116 colon = tested on: HCT-116 colon
HCT-15 colon = tested on: HCT-15 colon
HL-60(TB) leukemia = tested on: HL-60(TB) leukemia
HOP-62 NSCLC = tested on: HOP-62 NSCLC
HOP-92 NSCLC = tested on: HOP-92 NSCLC
HS 578T breast = tested on: HS 578T breast
HT29 colon = tested on: HT29 colon
IGROV1 ovarian = tested on: IGROV1 ovarian
K-562 leukemia = tested on: K-562 leukemia
KM12 colon = tested on: KM12 colon
LOX IMVI melanoma = tested on: LOX IMVI melanoma
M14 melanoma = tested on: M14 melanoma
MALME-3M melanoma = tested on: MALME-3M melanoma
MCF7 breast = tested on: MCF7 breast
MDA-MB-231 breast = tested on: MDA-MB-231 breast
MDA-MB-435 = tested on: MDA-MB-435
MDA-N = tested on: MDA-N
MOLT-4 leukemia = tested on: MOLT-4 leukemia
NCI-H226 lung = tested on: NCI-H226 lung
NCI-H23 lung = tested on: NCI-H23 lung
NCI-H460 lung = tested on: NCI-H460 lung
NCI-H522 lung = tested on: NCI-H522 lung
NCI/ADR-RES ovarian = tested on: NCI/ADR-RES ovarian
OVCAR-3 ovarian = tested on: OVCAR-3 ovarian
OVCAR-4 ovarian = tested on: OVCAR-4 ovarian
OVCAR-5 ovarian = tested on: OVCAR-5 ovarian
OVCAR-8 ovarian = tested on: OVCAR-8 ovarian
PC-3 prostate = tested on: PC-3 prostate
RPMI-8226 leukemia = tested on: RPMI-8226 leukemia
RXF 393 renal = tested on: RXF 393 renal
SF-268 CNS = tested on: SF-268 CNS
SF-295 CNS = tested on: SF-295 CNS
SF-539 CNS = tested on: SF-539 CNS
SK-MEL-2 melanoma = tested on: SK-MEL-2 melanoma
SK-MEL-28 melanoma = tested on: SK-MEL-28 melanoma
SK-MEL-5 melanoma = tested on: SK-MEL-5 melanoma
SK-OV-3 ovarian = tested on: SK-OV-3 ovarian
SN12C renal = tested on: SN12C renal
SNB-19 CNS = tested on: SNB-19 CNS
SNB-75 CNS = tested on: SNB-75 CNS
SR leukemia = tested on: SR leukemia
SW-620 colon = tested on: SW-620 colon
T-47D breast = tested on: T-47D breast
TK-10 renal = tested on: TK-10 renal
U251 CNS = tested on: U251 CNS
UACC-257 melanoma = tested on: UACC-257 melanoma
UACC-62 melanoma = tested on: UACC-62 melanoma
UO-31 renal = tested on: UO-31 renal
A498 renal = tested on: A498 renal

COc1cc(/C=C2\C[C@H]3[C@@H]4CC=C5C[C@@H](OC(C)=O)CC[C@]5(C)[C@H]4CC[C@]3(C)\C2=N\O)cc(OC)c1OC
TGI (786-0 renal): > 43.3 µM
TGI (A549 NSCLC): > 100 µM
TGI (ACHN renal): > 32.8 µM
TGI (BT-549 breast): > 90.8 µM
TGI (CAKI-1 renal): > 60.2 µM
TGI (CCRF-CEM leukemia): > 30.6 µM
TGI (COLO 205 colon): 17.8 µM
TGI (DU-145 prostate): > 100 µM
TGI (EKVX NSCLC): > 81.9 µM
TGI (HCC-2998 colon): > 100 µM
TGI (HCT-116 colon): > 100 µM
TGI (HCT-15 colon): > 100 µM
TGI (HL-60(TB) leukemia): 15.8 µM
TGI (HOP-62 NSCLC): > 100 µM
TGI (HOP-92 NSCLC): 9.43 µM
TGI (HS 578T breast): > 100 µM
TGI (HT29 colon): > 68.4 µM
TGI (IGROV1 ovarian): > 100 µM
TGI (K-562 leukemia): > 100 µM
TGI (KM12 colon): > 100 µM
TGI (LOX IMVI melanoma): 38.4 µM
TGI (M14 melanoma): > 100 µM
TGI (MALME-3M melanoma): > 60.9 µM
TGI (MCF7 breast): > 100 µM
TGI (MDA-MB-231 breast): > 100 µM
TGI (MDA-MB-435): > 91.3 µM
TGI (MDA-N): > 100 µM
TGI (MOLT-4 leukemia): > 25.5 µM
TGI (NCI-H226 lung): > 100 µM
TGI (NCI-H23 lung): > 100 µM
TGI (NCI-H460 lung): > 100 µM
TGI (NCI-H522 lung): > 49.8 µM
TGI (NCI/ADR-RES ovarian): > 88.9 µM
TGI (OVCAR-3 ovarian): > 100 µM
TGI (OVCAR-4 ovarian): > 83.7 µM
TGI (OVCAR-5 ovarian): > 100 µM
TGI (OVCAR-8 ovarian): > 100 µM
TGI (PC-3 prostate): 18.6 µM
TGI (RPMI-8226 leukemia): 3.08 µM
TGI (RXF 393 renal): 4.28 µM
TGI (SF-268 CNS): > 100 µM
TGI (SF-295 CNS): 13 µM
TGI (SF-539 CNS): > 92.4 µM
TGI (SK-MEL-2 melanoma): 76.6 µM
TGI (SK-MEL-28 melanoma): > 72.1 µM
TGI (SK-MEL-5 melanoma): 14.7 µM
TGI (SK-OV-3 ovarian): > 100 µM
TGI (SN12C renal): > 100 µM
TGI (SNB-19 CNS): > 100 µM
TGI (SNB-75 CNS): > 43.3 µM
TGI (SR leukemia): 14.8 µM
TGI (SW-620 colon): > 100 µM
TGI (T-47D breast): 5.22 µM
TGI (TK-10 renal): > 100 µM
TGI (U251 CNS): > 86.3 µM
TGI (UACC-257 melanoma): > 100 µM
TGI (UACC-62 melanoma): 45.6 µM
TGI (UO-31 renal): 95 µM

O=C(CSc1nnc(-c2ccccn2)s1)N/N=C/c1ccc([N+](=O)[O-])cc1
TGI (786-0 renal): > 100 µM
TGI (A498 renal): 75.3 µM
TGI (A549 NSCLC): > 100 µM
TGI (ACHN renal): > 100 µM
TGI (BT-549 breast): > 100 µM
TGI (CAKI-1 renal): > 100 µM
TGI (CCRF-CEM leukemia): > 100 µM
TGI (COLO 205 colon): > 100 µM
TGI (DU-145 prostate): 49.5 µM
TGI (HCT-116 colon): > 100 µM
TGI (HCT-15 colon): > 100 µM
TGI (HL-60(TB) leukemia): > 100 µM
TGI (HOP-62 NSCLC): > 100 µM
TGI (HOP-92 NSCLC): 42.3 µM
TGI (HS 578T breast): > 100 µM
TGI (HT29 colon): > 100 µM
TGI (IGROV1 ovarian): > 100 µM
TGI (K-562 leukemia): > 100 µM
TGI (KM12 colon): > 100 µM
TGI (LOX IMVI melanoma): > 100 µM
TGI (M14 melanoma): > 100 µM
TGI (MALME-3M melanoma): > 100 µM
TGI (MCF7 breast): > 100 µM
TGI (MDA-MB-231 breast): 49.1 µM
TGI (MDA-MB-435): > 100 µM
TGI (MDA-N): > 100 µM
TGI (MOLT-4 leukemia): > 100 µM
TGI (NCI-H226 lung): > 100 µM
TGI (NCI-H23 lung): > 100 µM
TGI (NCI-H460 lung): > 100 µM
TGI (NCI-H522 lung): > 100 µM
TGI (NCI/ADR-RES ovarian): > 100 µM
TGI (OVCAR-3 ovarian): > 100 µM
TGI (OVCAR-4 ovarian): > 100 µM
TGI (OVCAR-5 ovarian): > 100 µM
TGI (OVCAR-8 ovarian): > 100 µM
TGI (PC-3 prostate): > 100 µM
TGI (RXF 393 renal): 37.3 µM
TGI (SF-268 CNS): 71.9 µM
TGI (SF-295 CNS): > 100 µM
TGI (SF-539 CNS): > 100 µM
TGI (SK-MEL-2 melanoma): > 100 µM
TGI (SK-MEL-28 melanoma): > 100 µM
TGI (SK-MEL-5 melanoma): > 100 µM
TGI (SK-OV-3 ovarian): > 100 µM
TGI (SN12C renal): > 100 µM
TGI (SNB-19 CNS): 92.5 µM
TGI (SNB-75 CNS): 10.3 µM
TGI (SR leukemia): > 100 µM
TGI (SW-620 colon): > 100 µM
TGI (T-47D breast): > 100 µM
TGI (TK-10 renal): 79 µM
TGI (U251 CNS): 41.2 µM
TGI (UACC-257 melanoma): > 100 µM
TGI (UACC-62 melanoma): > 100 µM
TGI (UO-31 renal): 4.19 µM

CC(C)(C)C1=NC(=P(c2ccccc2)(c2ccccc2)c2ccccc2)C(=O)O1
TGI (786-0 renal): > 100 µM
TGI (A498 renal): > 100 µM
TGI (A549 NSCLC): > 100 µM
TGI (ACHN renal): > 100 µM
TGI (BT-549 breast): > 100 µM
TGI (CAKI-1 renal): > 100 µM
TGI (CCRF-CEM leukemia): > 100 µM
TGI (COLO 205 colon): > 100 µM
TGI (DU-145 prostate): > 100 µM
TGI (EKVX NSCLC): > 100 µM
TGI (HCT-116 colon): > 100 µM
TGI (HL-60(TB) leukemia): > 100 µM
TGI (HOP-62 NSCLC): > 100 µM
TGI (HOP-92 NSCLC): > 100 µM
TGI (HS 578T breast): > 100 µM
TGI (HT29 colon): > 100 µM
TGI (IGROV1 ovarian): > 100 µM
TGI (K-562 leukemia): > 100 µM
TGI (KM12 colon): > 100 µM
TGI (LOX IMVI melanoma): > 100 µM
TGI (M14 melanoma): > 100 µM
TGI (MALME-3M melanoma): > 100 µM
TGI (MCF7 breast): > 100 µM
TGI (MDA-MB-231 breast): > 100 µM
TGI (MDA-MB-435): > 100 µM
TGI (MDA-N): > 100 µM
TGI (MOLT-4 leukemia): > 100 µM
TGI (NCI-H226 lung): > 100 µM
TGI (NCI-H23 lung): > 100 µM
TGI (NCI-H522 lung): 90.8 µM
TGI (NCI/ADR-RES ovarian): > 100 µM
TGI (OVCAR-5 ovarian): > 100 µM
TGI (OVCAR-8 ovarian): > 100 µM
TGI (PC-3 prostate): > 100 µM
TGI (RPMI-8226 leukemia): > 100 µM
TGI (RXF 393 renal): > 100 µM
TGI (SF-268 CNS): > 100 µM
TGI (SF-295 CNS): > 100 µM
TGI (SK-MEL-2 melanoma): > 100 µM
TGI (SK-MEL-28 melanoma): > 100 µM
TGI (SK-MEL-5 melanoma): > 100 µM
TGI (SK-OV-3 ovarian): > 100 µM
TGI (SN12C renal): > 100 µM
TGI (SNB-19 CNS): > 100 µM
TGI (SNB-75 CNS): 56.5 µM
TGI (SR leukemia): > 100 µM
TGI (SW-620 colon): > 100 µM
TGI (T-47D breast): > 100 µM
TGI (TK-10 renal): > 100 µM
TGI (U251 CNS): > 100 µM
TGI (UACC-257 melanoma): > 100 µM
TGI (UACC-62 melanoma): > 100 µM
TGI (UO-31 renal): > 100 µM
